Laboratory results as given in ChEMBL document CHEMBL1201862, “PubChem BioAssay data set” (2004).
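48-hour exposure; five concentrations; linearly interpolated endpoints. GI50 = concentration required for 50% inhibition of growth.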 Calls of active or inactive are those of the source. Cut-off read from the data, not from the text of the source: active = GI50 up to about 1.1 µM and inactive = higher.

Experiments:
Assay in all cases: NCI-60 cell line screen, 48 h
HT-29 = test system: HT-29
BT-549 = test system: BT-549
NCI-H522 = test system: NCI-H522
NCI/ADR-RES = test system: NCI/ADR-RES
CCRF-CEM = test system: CCRF-CEM
SNB-19 = test system: SNB-19
SK-OV-3 = test system: SK-OV-3
HCT-15 = test system: HCT-15
RPMI-8226 = test system: RPMI-8226
MDA-N = test system: MDA-N
OVCAR-4 = test system: OVCAR-4
OVCAR-8 = test system: OVCAR-8
T47D = test system: T47D
M14 = test system: M14
TK-10 = test system: TK-10
MCF7 = test system: MCF7
SK-MEL-28 = test system: SK-MEL-28
DU-145 = test system: DU-145
OVCAR-5 = test system: OVCAR-5
HOP-92 = test system: HOP-92

Row | SMILES | GI50 (HT-29) | GI50 (BT-549) | GI50 (NCI-H522) | GI50 (NCI/ADR-RES) | GI50 (CCRF-CEM) | GI50 (SNB-19) | GI50 (SK-OV-3) | GI50 (HCT-15) | GI50 (RPMI-8226) | GI50 (MDA-N) | GI50 (OVCAR-4) | GI50 (OVCAR-8) | GI50 (T47D) | GI50 (M14) | GI50 (TK-10) | GI50 (MCF7) | GI50 (SK-MEL-28) | GI50 (DU-145) | GI50 (OVCAR-5) | GI50 (HOP-92)
1 | CC(=O)O[C@H]1[C@H](OC(C)=O)[C@@H](CN=[N+]=[N-])OCO[C@@H]1CN=[N+]=[N-] | > 100 µM (inactive) | > 100 µM (inactive) | > 100 µM (inactive) | > 100 µM (inactive) | > 100 µM (inactive) | > 100 µM (inactive) | > 100 µM (inactive) | > 100 µM | > 100 µM (inactive) | > 100 µM (inactive) | > 100 µM (inactive) | > 100 µM (inactive) | > 100 µM (inactive) | > 100 µM (inactive) | > 100 µM (inactive) | > 100 µM (inactive) | > 100 µM (inactive) | > 100 µM (inactive) | > 100 µM (inactive) | > 100 µM (inactive)
2 | COc1ccc(/N=C2\C(=N/c3ccc(OC)cc3)N(c3ccc(N(C)C)cc3)C(=S)N2c2ccc(OC)cc2)cc1 | > 100 µM (inactive) | > 100 µM (inactive) | > 100 µM (inactive) | > 100 µM (inactive) | > 100 µM (inactive) | > 100 µM (inactive) | > 100 µM (inactive) | > 100 µM | 0.0532 µM (active) | > 100 µM (inactive) | > 100 µM (inactive) | > 37.2 µM (inactive) | > 100 µM (inactive) | > 100 µM (inactive) | > 100 µM (inactive) | > 100 µM (inactive) | > 100 µM (inactive) | > 100 µM (inactive) | > 100 µM (inactive) | > 100 µM (inactive)
3 | CCOC(=O)/C=C(/C(=O)OCC)n1cc(C)c(=O)n(/C(=C/C(=O)OCC)C(=O)OCC)c1=O | 2.69 µM (inactive) | 5.79 µM (inactive) | 0.49 µM (active) | 8.36 µM (inactive) | 0.354 µM (active) | 19.8 µM (inactive) | 17.5 µM (inactive) | 1.56 µM | 1.88 µM (inactive) | 3.78 µM (inactive) | 8.47 µM (inactive) | 5.35 µM (inactive) | 2.64 µM (inactive) | 2.31 µM (inactive) | 2.08 µM (inactive) | 1.91 µM (inactive) | 2.19 µM (inactive) | 13.7 µM (inactive) | 6.62 µM (inactive) | 1.52 µM (inactive)
4 | CCOC(=O)/C=C(/C(=O)OCC)n1cc(Cl)c(=O)n(CC(=O)OCC)c1=O | 4.56 µM (inactive) | 5.92 µM (inactive) | 1.45 µM (inactive) | 8.95 µM (inactive) | 0.444 µM (active) | > 25 µM (inactive) | > 25 µM (inactive) | 5.46 µM | 2.47 µM (inactive) | 5.81 µM (inactive) | 6.03 µM (inactive) | 4.53 µM (inactive) | 4.81 µM (inactive) | 4.57 µM (inactive) | 4.14 µM (inactive) | 22.9 µM (inactive) | 5.02 µM (inactive) | 4.61 µM (inactive) | 4.52 µM (inactive) | 5.15 µM (inactive)
5 | CC1=C(C(=O)OCCO[N+](=O)[O-])C(c2cccc([N+](=O)[O-])c2)C(C(=O)OC(C)C)=C(C)N1 (stereo not given) | 15.2 µM (inactive) | 14 µM (inactive) | 17.8 µM (inactive) | 10.5 µM (inactive) | 29.9 µM (inactive) | 19.2 µM (inactive) | 16.7 µM (inactive) | 14.1 µM | 2.58 µM (inactive) | 14.9 µM (inactive) | 3.76 µM (inactive) | 16.1 µM (inactive) | 15.6 µM (inactive) | 16 µM (inactive) | 14.9 µM (inactive) | 19.6 µM (inactive) | 14.3 µM (inactive) | 25.3 µM (inactive) | 14.9 µM (inactive) | 11 µM (inactive)
